Assays:
HT1080 cells = test: Cellular assay for IDH1m inhibitors: inhibition of 2-HG production (LC-MS, 48 hours) in HT1080 cells; assay type: cell-based; details: Homo sapiens, HT-1080; inhibition of 2-HG production, HT1080 cells; read-out: HT1080 IC50
Method in brief: (§1)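 The read-out is 2-HG in culture medium, measured by LC-MS after 48 h of compound exposure (0.2% DMSO) in cells plated overnight at 5000 per well in DMEM/10% FBS. IC50 is 50% reduction relative to DMSO wells. Luminescent viability (Cell Titer Glo) followed at 72 h.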

IDH1 R132H = IDH1 R132H (Homo sapiens, UniProt O75874, R132H); test: Assay for IDH1 R132H inhibitors (NADPH/aKG, resazurin detection); assay type: biochemical; details: enzyme assay of Example 12; read-out: IDH1R132H IC50
IDH1 R132H, sequence (O75874 whole entry R132H): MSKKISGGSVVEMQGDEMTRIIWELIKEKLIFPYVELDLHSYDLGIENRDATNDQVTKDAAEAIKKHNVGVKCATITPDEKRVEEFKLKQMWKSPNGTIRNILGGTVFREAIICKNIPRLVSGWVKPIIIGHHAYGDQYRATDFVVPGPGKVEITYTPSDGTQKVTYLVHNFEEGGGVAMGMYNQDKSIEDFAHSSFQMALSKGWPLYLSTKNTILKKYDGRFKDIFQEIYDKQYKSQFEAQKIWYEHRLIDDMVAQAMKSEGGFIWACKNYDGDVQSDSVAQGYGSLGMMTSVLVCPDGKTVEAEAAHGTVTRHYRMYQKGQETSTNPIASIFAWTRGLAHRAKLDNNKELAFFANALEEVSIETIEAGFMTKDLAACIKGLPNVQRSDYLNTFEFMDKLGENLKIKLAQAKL
Method in brief: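 Compound added to substrate mix (8 uM NADPH, 2 mM aKG), then enzyme mix (0.2 μg/ml IDH1 R132H); 50 min RT in 20 mM Tris pH 7.5, 150 mM NaCl, 10 mM MgCl2, 0.03% BSA. Resazurin detection mix (30 μM) 5 min RT; resorufin fluorescence Ex544/Em590.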

U87MG cells = test: Cellular assay for IDH1m inhibitors: inhibition of 2-HG production (LC-MS, 48 hours) in U87MG cells; assay type: cell-based; details: Homo sapiens, U-87 MG, inhibition of 2-HG production, U87R132H cells; read-out: U87R132H IC50
Method in brief: as §1

| SMILES | IC50 (HT1080 cells) | IC50 (IDH1 R132H) | IC50 (U87MG cells) |
| --- | --- | --- | --- |
| COCCC(=O)N1CCN(c2nc(C3CC3)c(-c3cccc(N)c3)cc2C#N)C[C@H]1C [Compound 285, (R)-5-(3-aminophenyl)-6-cyclopropyl-2-(4-(3-methoxypropanoyl)-3-methylpiperazin-1-yl)nicotinonitrile] | 500 to 1000 nM | < 500 nM | 1000 to 10000 nM |
| COCCC(=O)N1CCN(c2nc(C3CC3)c(-c3cccc4ncccc34)cc2C#N)C[C@H]1C [Compound 288, (R)-6-cyclopropyl-2-(4-(3-methoxypropanoyl)-3-methylpiperazin-1-yl)-5-(quinolin-5-yl)nicotinonitrile] | < 500 nM | < 500 nM | < 500 nM |
| C=Cc1cc(-c2cc(C#N)c(N3CCN(C(=O)CCOC)[C@H](C)C3)nc2C2CC2)ccn1 [Compound 390, (R)-2-cyclopropyl-6-(4-(3-methoxypropanoyl)-3-methylpiperazin-1-yl)-2′-vinyl-3,4′-bipyridine-5-carbonitrile] | < 500 nM | < 500 nM | < 500 nM |
| COCCC(=O)N1CCN(c2nc(C3CC3)c(-c3ccc(C(N)=O)cc3)cc2C#N)C[C@H]1C [Compound 296, (R)-4-(5-cyano-2-cyclopropyl-6-(4-(3-methoxypropanoyl)-3-methylpiperazin-1-yl)pyridin-3-yl)benzamide] | 500 to 1000 nM | < 500 nM | 500 to 1000 nM |
| COCCC(=O)N1CCN(c2nc(C3CC3)c(-c3cccnc3OC)c(C)c2C#N)C[C@H]1C [Compound 320, (R)-2-cyclopropyl-2′-methoxy-6-[4-(3-methoxy-propionyl)-3-methyl-piperazin-1-yl]-4-methyl-[3,3′]bipyridinyl-5-carbonitrile] | 500 to 1000 nM | < 500 nM | < 500 nM |
| COCCC(=O)N1CCN(c2nc(C3CC3)c(-c3ccc(NC(C)=O)cc3)c(C)c2C#N)C[C@H]1C [Compound 326, (R)—N-(4-{5-cyano-2-cyclopropyl-6-[4-(3-methoxy-propionyl)-3-methyl-piperazin-1-yl]-4-methyl-pyridin-3-yl}-phenyl)-acetamide] | 500 to 1000 nM | < 500 nM | < 500 nM |
| COCCC(=O)N1CCN(c2nc(C3CC3)c(-c3cccc4nc(O)ccc34)cc2C#N)C[C@H]1C [Compound 442, (R)-6-cyclopropyl-5-(2-hydroxyquinolin-5-yl)-2-(4-(3-methoxypropanoyl)-3-methylpiperazin-1-yl)nicotinonitrile] | < 500 nM | < 500 nM | < 500 nM |
| C=CC(=O)Nc1cccc(C(C)Oc2cc(C#N)c(N3CCN(C(=O)CCOC)[C@H](C)C3)nc2C2CC2)c1 (stereo partly drawn) [Compound 407, N-(3-(1-(5-cyano-2-cyclopropyl-6-((R)-4-(3-methoxypropanoyl)-3-methylpiperazin-1-yl)pyridin-3-yloxy)ethyl)phenyl)acrylamide] | < 500 nM | < 500 nM | < 500 nM |
| COCCC(=O)N1CCN(c2nc(C3CC3)c(-c3cccc(NC(=O)CCl)c3)cc2C#N)C[C@H]1C [Compound 403, (R)-2-chloro-N-(3-(5-cyano-2-cyclopropyl-6-(4-(3-methoxypropanoyl)-3-methylpiperazin-1-yl)pyridin-3-yl)phenyl)acetamide] | 500 to 1000 nM | < 500 nM | 500 to 1000 nM |
| COCCC(=O)N1CCN(c2nc(C3CC3)c(-c3ccc4ccccc4c3)c(C)c2C#N)C[C@H]1C [Compound 267, (R)-6-cyclopropyl-2-(4-(3-methoxypropanoyl)-3-methylpiperazin-1-yl)-4-methyl-5-(naphthalen-2-yl)nicotinonitrile] | 1000 to 10000 nM | 500 to 1000 nM | 1000 to 10000 nM |
| COCCC(=O)N1CCN(c2nc(C3CC3)c(OCc3cccc(C#N)c3)cc2C#N)C[C@H]1C [Compound 294, (R)-5-(3-cyanobenzyloxy)-6-cyclopropyl-2-(4-(3-methoxypropanoyl)-3-methylpiperazin-1-yl)nicotinonitrile] | 500 to 1000 nM | < 500 nM | 500 to 1000 nM |

Now from value to compound:

| IC50 (HT1080 cells) | IC50 (IDH1 R132H) | IC50 (U87MG cells) | SMILES |
| --- | --- | --- | --- |
| 1000 to 10000 nM | < 500 nM | 1000 to 10000 nM | COCCC(=O)N1CCN(c2nc(C3CC3)c(Nc3cc(C#N)ccn3)cc2C#N)C[C@H]1C1CC1 [Compound 792, (R)-5-(4-cyanopyridin-2-ylamino)-6-cyclopropyl-2-(3-cyclopropyl-4-(3-methoxypropanoyl)piperazin-1-yl)nicotinonitrile] |
| < 500 nM | < 500 nM | < 500 nM | C=Cc1cc(-c2cc(C#N)c(N3CCN(C(=O)CC(C)O)[C@H](C4CC4)C3)nc2C2CC2)ccn1 (stereo partly drawn) [Compound 568, 2-cyclopropyl-6-((3R)-3-cyclopropyl-4-(3-hydroxybutanoyl)piperazin-1-yl)-2′-vinyl-3,4′-bipyridine-5-carbonitrile] |
| < 500 nM | < 500 nM | < 500 nM | C=Cc1cc(-c2cc(C#N)c(N3CCN(C(=O)C4CC4)[C@H](C4CC4)C3)nc2C2CC2)cnn1 [Compound 613, (R)-2-(4-(cyclopropanecarbonyl)-3-cyclopropylpiperazin-1-yl)-6-cyclopropyl-5-(6-vinylpyridazin-4-yl)nicotinonitrile] |
| < 500 nM | < 500 nM | < 500 nM | COCCC(=O)N1CCN(c2nc(C3CC3)c(Nc3ccnc(C#N)c3)cc2C#N)C[C@H]1C [Compound 660, (R)-4-(5-cyano-2-cyclopropyl-6-(4-(3-methoxypropanoyl)-3-methylpiperazin-1-yl)pyridin-3-ylamino)picolinonitrile] |
| < 500 nM | < 500 nM | < 500 nM | C=Cc1cc(-c2cc(C#N)c(N3CCN(C(=O)C4CC4)[C@H](C4CC4)C3)nc2C2CC2)c2ccncc2n1 [Compound 689, (R)-2-(4-(cyclopropanecarbonyl)-3-cyclopropylpiperazin-1-yl)-6-cyclopropyl-5-(2-vinyl-1,7-naphthyridin-4-yl)nicotinonitrile] |
| < 500 nM | < 500 nM | < 500 nM | C=Cc1ccc2ccc(Nc3cc(C#N)c(N4CCN(C(=O)CCOC)[C@H](C)C4)nc3C3CC3)cc2n1 [Compound 732, (R)-6-cyclopropyl-2-(4-(3-methoxypropanoyl)-3-methylpiperazin-1-yl)-5-(2-vinylquinolin-7-ylamino) nicotinonitrile] |
| 500 to 1000 nM | < 500 nM | 500 to 1000 nM | Cc1cc2c(-c3cc(C#N)c(N4CCN(C(=O)C5CC5)[C@H](C5CC5)C4)nc3C3CC3)cccc2cn1 [Compound 458, (R)-2-(4-(cyclopropanecarbonyl)-3-cyclopropylpiperazin-1-yl)-6-cyclopropyl-5-(3-methylisoquinolin-5-yl)nicotinonitrile] |
| < 500 nM | < 500 nM | < 500 nM | C=Cc1cc(N(C)c2cc(C#N)c(N3CCN(C(=O)CCOC)[C@H](C)C3)nc2C2CC2)ccn1 [Compound 690, (R)-6-cyclopropyl-2-(4-(3-methoxypropanoyl)-3-methylpiperazin-1-yl)-5-(methyl(2-vinylpyridin-4-yl)amino)nicotinonitrile] |
| < 500 nM | < 500 nM | < 500 nM | C=Cc1cc(-c2cc(C#N)c(N3CCN(C(=O)CCO)[C@H](C4CC4)C3)nc2C2CC2)nc(N)n1 [Compound 719, (R)-5-(2-amino-6-vinylpyrimidin-4-yl)-6-cyclopropyl-2-(3-cyclopropyl-4-(3-hydroxypropanoyl)piperazin-1-yl)nicotinonitrile] |

Source: patent US9856279B2 (AGIOS PHARMACEUTICALS, INC, priority 2011, dated 2018)
